Results taken from patent publication US9198915B2, “Methods involving aldose reductase inhibitors” (The Board of Regents of The University of Texas System, priority 2007, dated 2015).

Legend:
[1] = test system: SAEC; assay: RW-induced apoptosis in SAEC (annexin V/PI flow cytometry); format: cell-based, human; settings: zopolrestat 20 μM, RW 150 μg/ml, 18 h
Experimental: Small Airway Epithelial cells (SAEC) obtained from Cambrex Bio Science Walkersville, Inc. (Walkersville, Md.) contains normal human SAEC from distal airspace of donor. The cells were cultured according to the supplier's instructions at 37° C. in humidified atmosphere containing 95% air and 5% CO2 in small airway epithelial basal medium (SABM) with supplements containing 52 μg/ml bovine pituitary extract, 0.5 ng/ml human recombinant epidermal growth factor (EGF), 0.5 μg/ml epinephrine, 1 μg/ml hydrocortisone, 10 μg/ml transferrin, 5 μg/ml insulin, 0.1 ng/ml retinoic acid (RA), 6.5 ng/ml triiodothyronine, 50 μg/ml Gentamicin/Amphotericin-B (GA-1000), and 50 μg/ml fatty acid-free bovine serum albumin (BSA).
Approximately 2×10^5 SAEC/well were plated in 6-well plates in triplicate for each group. After 24 hours, the medium was replaced with serum-free SABM with or without zopolrestat (20 μM). The cells were induced by RW (150 μg/mL) and incubated for 18 h. Apoptotic cell death was examined using the annexin V-FITC/PI, (molecular probes, Invitrogen) according to the manufacturer's instructions. Twenty thousand events were acquired for each sample and analyzed by flow cytometry using the LYSIS II software (FACScan, BD Pharmingen).

[2] = test system: SAEC; assay: TNF-α- and LPS-induced ROS generation in SAEC (DHE); format: cell-based, human; settings: TNF-α 2 nM or LPS 1 μg/mL, 16 h
Experimental: Dihydroethidium (DHE, Molecular Probes) staining for superoxide was carried out as described previously. Briefly, approximately 1×10^5 cells were seeded on chambered slides and starved in serum-free basal medium with AR inhibitor or carrier for 24 h. The cells were treated with TNF-α (2 nM) or LPS (1 μg/mL) or carrier for an additional 16 h. SAEC were rinsed with cold PBS and incubated in PBS containing HEt (2.5 μmol/L) at 37° C. for 15 min. Cells were rinsed in PBS and mounted with fluorsave mounting medium containing DAPI (Vector Laboratories Inc., Burlingame, Calif.). The image of ethidium staining was measured with a Nikon epifluorescence microscope with a 585 nm long-pass filter.

[3] = test system: TNF-α, NO and PGE2 in aqueous humor; assay: EIU: TNF-α, NO and PGE2 in aqueous humor (ELISA kits); format: in vivo, rat; settings: 6 and 24 h after EIU-induction
Experimental: Six to eight-weeks-old male Lewis rats weighing approximately 150-160 g were used in this study (n=6). All animals were kept in the UTMB's Animal Care Center. All the animal studies were conducted in compliance with the ARVO statement for the use of Animals in Ophthalmic and Vision Research. EIU was induced by a subcutaneous injection of Escherichia coli LPS (200 μg) dissolved in phosphate-buffered saline (PBS, pH 7.4). Rats in ART and ETU+ARI groups were injected intraperitoneally with AR inhibitor zopolrestat (25 mg/kg body weight) dissolved in dimethyl-sulfoxide (DMSO) 24 h before and immediately after LPS injection. Rats of control group received carrier (PBS+20% DMSO) injection.
The levels of TNF-α in the AqH (stored at −80° C.) were assessed with commercially available ELISA kit, according to the manufacturer's instructions. The total level of nitrate plus nitrite in the AqH was measured by using a total nitrite colorimetric assay ([…]) kit according to the manufacturer's instructions. PGE2 production was measured by enzyme immunoassay kit following the manufacturer's instructions.

[4] = test system: SAEC; assay: RW-induced ROS generation in SAEC (DHE); format: cell-based, human; settings: SAEC preincubated with AR inhibitor, RW 150 μg/mL
Experimental: Dihydroethidium (DHE, Molecular Probes) staining for superoxide was carried out as described previously. Briefly, Approximately 1×10^5 cells were seeded on chambered slides and starved in serum-free SABM with or without AR inhibitor for 24 h. The cells were treated with RW for 16 h. SAEC were rinsed with cold PBS and incubated in PBS containing HEt (2.5 mmol/L) at 37° C. for 15 minutes. Cells were rinsed in PBS and mounted with Vectashield Hard Set™ mounting medium with DAPI (Vector Laboratories Inc., Burlingame, Calif.). The image of ethidium staining was measured with a Nikon epifluorescence microscope with a 585 nm long-pass filter.

[5] = test system: IL-6, IL-8 and Cox-2 mRNA; assay: RW-induced IL-6, IL-8 and Cox-2 mRNA in SAEC (RT-PCR); format: cell-based, human; settings: RW 50 μg/ml, 6 h
Experimental: The SAECs were grown in 6-well plates at a density of approximately 3.0×10^5 cells/well. After approximately 80% confluence, cells were serum-starved in the presence or absence of sorbinil or zopolrestat (20 μM) for 24 h and then stimulated with 50 μg/ml RW for 6 h. Total RNA from SAECs was isolated by using RNeasy kit (Qiagen) as per supplier's instructions. Aliquots of RNA (0.5-1.0 μg) isolated from each sample were reverse transcribed with Omniscript and Sensiscript reverse transcriptase one-step RT-PCR system with HotStar Taq DNApolymerase (Qiagen) at 55° C. for 30 min followed by PCR amplification. The oligonucleotide primer sequences were as follows: 5′-ATGAACTCCT TCTCCACAAGCGC-3′ (SEQ ID NO:3) (sense) and 5′-[…]-3′ (SEQ TD NO:4) (antisense) for IL-6; 5′-[…]-3′ (SEQ ID NO:5) (sense) and 5′-TCT […]-3′ (SEQ ID NO:6) (antisense) for IL-8; 5 ‘-TGAAACCCACTCCA AACACAG-3’ (SEQ ID NO:7) (sense) and 5′-[…]-3′ (SEQ ID NO:8) (antisense) for Cox-2; and 5′-[…]-3′ (SEQ ID NO:9) (sense) and 5′-CGTC […]-3′ (SEQ ID NO:10) (antisense) for β-actin. PCR was carried out in a PCR Sprint thermal cycler (Thermo electron corporation, Milford, Mass.) under the following conditions: initial denaturation at 95° C. for 15 min followed by 35 cycles of 94° C. 1 min, 62° C. 1 min, 72° C. 1 min, and then 72° C. 10 min for final extension. […]

[6] = test system: Cox-2, iNOS, Bax, Bcl-xl, cyclin D1, E2F2; assay: TNF-α- and LPS-induced inflammatory, apoptosis and cell cycle proteins in SAEC (Western blotting); format: cell-based, human; settings: TNF-α 2 nM or LPS 1 μg/ml, 24 h
Experimental: The cells after incubations were lysed in RIPA lysis buffer, and forty micrograms of cytoplasmic proteins were resolved on 10% SDS-PAGE gel. After electrophoresis, the proteins were electro-transferred to a nitrocellulose membrane, blocked with 5% nonfat milk in TBST, and probed with antibodies against COX-2, NOS2, Bax, cyclin D1, E2F2 (1:1,000 dilution) for 2 hr. The blot was then washed, exposed to HRP-conjugated secondary antibodies (1:5,000 dilution) for 1 hr, and the antigen-antibody complex was detected by enhanced chemiluminescence (Amersham Pharmacia Biotech, Piscataway, N.J., USA).

O=C(O)Cc1nn(Cc2nc3cc(C(F)(F)F)ccc3s2)c(=O)c2ccccc12 [zopolrestat]
prevention of RW-induced cell death [1]: > 80%
TNF-α- and LPS-induced increase in ROS levels [2]: prevented these changes
reduction of TNF-α concentration in AqH [3]: > 60%
RW-induced increase in cellular ROS levels [4]: prevented these changes
prevention of RW-induced increase of COX-2 mRNA levels [5]: > 60%
prevention of RW-induced increase of IL-6 and IL-8 mRNA levels [5]: > 70%
TNF-α- and LPS-induced increase of Cox-2 and iNOS protein expression [6]: significantly prevented this increase
